Measurements taken from EP0987025A1, “Pharmaceitical composition or composition package containing a pyrimidine nucleoside analogue and a purine nucleoside analogue” (priority 1998, dated 2000).
Like-named read-outs stand apart in the source and are kept apart here.

What was measured:
[1] = Stability in drinking water; assay type: physicochemical; conditions: 0.25 mg/ml, room temperature, changed every 3 days
Protocol: AZT (Sigma) was administered ad libitum in the drinking water at a concentration of 0.25 mg/ml. AZT was stable in the drinking water at room temperature and was changed every 3 days.

BM5d proviral DNA = assay: PCR analysis of BM5d proviral DNA in spleen, lymph node and bone marrow; assay type: in vivo, C57BL/6 mice; conditions: at 10 weeks after infection
Source text: The following oligonucleotide primers were used for the amplification of a 141-bp gag gene of defective virus genome (BM5d); 5' primer, 5'-AACCTTCCTCCTCTGCCA-3' (sense) corresponding to nucleotides 1456-1473 and 3' primer, 5'-ACCACCTCTCGGGCTTTC-3' (antisense) corresponding to nucleotides 1579-1596 of the BM5d genome (Chat topadhyay SK, Sengupta D.N., FredricksonT.N., Morse H.C. III, Hartley J.W., "Characteristics and contributions of defective, ecotropic and mink cell focus-inducing viruses in a retrovirus induced immunodeficiency syndrome of mice.", J..Virol. 1991; 65: 4232-41.). A second pair or oligonucleotide primers was used for amplification of 203-bp of the mouse glucose-6-phosphate dehydrogenase (G6PD) gene. This amplification served as an internal control (endogenous standard) for evaluation of the relative BM5d proviral DNA. The nucleotide primers for the amplification were as follows: 5' primer, 5'-[…]-3' (sense) and 3' primer, 5'-[…]-3' (antisense) (Kurdi-Haidar B., Mason P.J., Berrebi A., et al., "Origin and spread of the glucose-6-phosphate dehydrogenase variant (G6PD-Mediterranean) in the Middle East.", Am. J. Hum. Genet. 1990; 47:1013-19.).
Probe D30, which was derived from the 137-bp Smal-Xhol p12 gag fragment of the defective virus genome (DU5H), was kindly provided by P. Jolicoeur (Montreal, Canada) (Aziz D.C., Hanna Z., Jolicoeur P., "Severe immunodeficiency disease induced by a defective murine leukemia virus.", Nature 1989; 338: 505-08).
Total cellular DNA was isolated from the spleens, lymph nodes and bone marrow of uninfected, infected and infected/treated mice by the sodium iodide isopropanol method.
PCR amplifications were performed in a 25 µl final volume using the Perkin Elmer GeneAMP kit (1 mM MgCl2, 2.5 U AmpliTag) with 0.3 µg total cellular DNA and 20 pmol of each primer.
PCR reaction were carried out for 37 cycles at 95°C for 30 sec, 58°C for 30 sec and 72°C for 30 sec with a final extension at 72°C for 10 min.
Products were analyzed by electrophoresis on agarose gel, blotted and hybridized with either the ^32P-labeled D30 or G6PD probe.
The intensity of radiolabeled bands was analyzed and quantified in a GS-250 Molecular Imager™ (Bio-Rad, Hercules, CA, USA). For BM5d proviral DNA detection the relative integration was determined by dividing the intensity of the BM5d bands by the intensity of G6PD bands (Fraternale A., Casabianca A., Rossi L., et al., "Inhibition of murine AIDS by combination of AZT and dideoxycytidine 5'-triphosphate.", J. Acquir. Imm. Def Syndr. and Hum. Retrovir. 1996; 12:164-73). The percentages of inhibition were referred to the infected mice.

LP-BM5 = assay type: in vivo, C57BL/6 mice; conditions: at 10 weeks after infection
Source text: LP-BM5 virus was provided by Robert Yetter (Veternas Administration Hospital, Baltimore, MD) and was maintained in a persistently infected SC- 1 cell line as described (Hosier D.E., Yetter R.A., Morse H.C. III, "Functional T lymphocytes are required for a murine retrovirus induced immunodeficiency disease (MAIDS)", J. Exp. Med. 1987; 165:1737-42). C57BL/6 female mice were purchased from Nossan, Milan, Italy and were used at 5 weeks of age. Animals were infected by means of two successive intraperitoneal injections at 24-hr intervals. In the experiments reported three different virus preparations were used.
Mice were housed at 22±1°C with a 12-hr light-dark cycle, 60±5% humidity, and 12 air changes/hr.
First, the efficacy of 2-fluoro-ara-AMP (F-araAMP, Fludara) in inhibiting murine AIDS (MAIDS), a disease characterized by a lymphoproliferative disorder (lymphadenopathy and splenomegaly), associated with severe immunodeficiency and hypergammaglobulinemia, was evaluated. The disease develops in some strains of mice (C57BL/6) that are infected with a murine leukemia virus mixture termed LP-BM5. In the first preliminary experiments (after about 4 months from infection) LP-BMS infected animals were treated with three different concentrations of F-ara-AMP: 0.065 mg/mouse, 0.325 mg/mouse, 0.650 mg/mouse. The animals of each group were treated intraperitoneally for 3 days a week and for 3 weeks. At the end of the treatment animals were killed and splenomegaly, lymphadenopathy and hypergammaglobulinemia were evaluated.
Infected mice after 7 weeks from infection were treated intraperitoneally with Fludara as follows: • 1. 0.65 mg/mouse once a day for 4 days a week (total dose 7.8 mg/mouse); • 2. 0.65 mg/mouse twice a day for 5 days a week (total dose 19.5 mg/mouse); • 3. […]

[2] = treatment a: AZT 250 mg/l in drinking water for 6 weeks
[3] = treatment b: AZT 250 mg/l in drinking water for 10 weeks

Cc1cn([C@H]2C[C@H](N=[N+]=[N-])[C@@H](CO)O2)c(=O)[nH]c1=O [AZT, 3'-Azido-3'-desoxythymidin]
stability in the drinking water [1]: stable | bone marrow, BM5d proviral DNA copy number (E) (BM5d proviral DNA; [2]): 28,500±3,535 Proviral DNA molecules per 0.3 µg of total cellular DNA | bone marrow, inhibition of BM5d (% vs. Infected) (F) (BM5d proviral DNA; [2]): 4.135±5.847% | lymph node, BM5d proviral DNA copy number (C) (BM5d proviral DNA; [2]): 30,966±7,169 Proviral DNA molecules per 0.3 µg of total cellular DNA | lymph node, inhibition of BM5d (% vs. Infected) (D) (BM5d proviral DNA; [2]): 85.89±3.26 % | spleen, BM5d proviral DNA copy number (A) (BM5d proviral DNA; [2]): 135,000±20,000 Proviral DNA molecules per 0.3 µg of total cellular DNA | spleen, inhibition of BM5d (% vs. Infected) (B) (BM5d proviral DNA; [2]): 15.14±9.60% | bone marrow, BM5d proviral DNA copy number (E) (BM5d proviral DNA; [3]): 13,761±8,766 Proviral DNA molecules per 0.3 µg of total cellular DNA | bone marrow, inhibition of BM5d (% vs. Infected) (F) (BM5d proviral DNA; [3]): 51.51±30.83 % | spleen, BM5d proviral DNA copy number (A) (BM5d proviral DNA; [3]): 39,669±19,026 Proviral DNA molecules per 0.3 µg of total cellular DNA | spleen, inhibition of BM5d (% vs. Infected) (B) (BM5d proviral DNA; [3]): 73.30±12.53 % | Lymph node w. (LP-BM5; [2]): 1.060 ± 0.240 g | Spleen w. (LP-BM5; [2]): 0.520 ± 0.070 g | Lymph node w. (LP-BM5; [3]): 0.550 ± 0.330 g | Spleen w. (LP-BM5; [3]): 0.580 ± 0.150 g
